Here are results for three molecules from PMC12006963, “Application of Deuterium in an M1 Positive Allosteric Modulator Back-Up Program: The Discovery of VU6045422” (ACS Chemical Neuroscience, 2025).

Data set [1] is described as follows: In vivo IV/PO pharmacokinetics, NHP. The following applies: NHP (cyno), dose iv/po mg/kg: 1 1/3, 5 1/5; for clearance / Vd / half-life: cynomolgus monkey, plasma, 1 mg/kg; for clearance: read-out: CLp; for Vd: read-out: Vss; for half-life: read-out: elimination t1/2 (converted).
Details of data set [2]: method as in PMID 39660766. The following applies: rat hepatic microsomes; cited from earlier work.
Another data set concerns the target hERG (Homo sapiens, UniProt Q12809). Also on record: method as in PMID 39660766. Conditions: read-out: hERG manual patch clamp IC50; cited from earlier work. For orientation: Block of hERG is tested as a sign of cardiac risk.
The nature of data set [3]: In vivo IV/PO pharmacokinetics, dog. The following applies: for clearance / Vd / half-life: beagle or mongrel, plasma, 1 mg/kg; for clearance: dose iv/po mg/kg: 1 1/3, 5 1/5, read-out: CLp; for Vd: dose iv/po mg/kg: 1 1/3, 5 1/5, read-out: Vss; for half-life: dose iv/po mg/kg: 1 1/3, 5 1/5, read-out: elimination t1/2 (converted); for F (%) po: dose iv/po mg/kg: 1 1/3, 5 1/5. Also on record: species or system dog (beagle or mongrel).

The test system of a further data set is rM2-5. Briefly: Muscarinic selectivity, rat M2-5. The format is cell-based.
In another data set the test system is hM2-5. Briefly: Muscarinic selectivity, human M2-5 calcium mobilization. The format is cell-based. On the procedure:
Procedures for Biological Experiments
Calcium mobilization assays:
All functional cell-based assays were performed in stable Chinese Hamster Ovary (CHO) cell lines constitutively expressing human M5 or human M1 receptors. For full muscarinic selectivity, CHO cells expressing human M3, human M2 plus Gqi5 or human M4 plus Gqi5 were used. Cells were plated at 15,000 cells per 20 µL per well in black 384-well, TC-treated, clear-bottomed plates (Greiner) in Ham’s F12 medium supplemented with 10% FBS and 20 mM HEPES. Cells were incubated overnight at 37 °C under 5% CO2. […] The compound plate, cell plate, and plates containing EC20 and EC80 acetylcholine concentrations were placed in a Hamamatsu FDSS 6000 or 7000 kinetic imaging plate reader equipped to measure Ex480/Em540 fluorescence. […] After 2 seconds of collecting baseline fluorescence, 20 µL of the compound solutions were added to the cell plate. […] The fluorescence signal was collected for a total of 300 seconds. […] Data were imported and analyzed in Dotmatics Informatics software. by normalizing all data in the individual kinetic traces to the initial fluorescence read. The magnitude of each agonist addition was then determined and normalized to the average maximum response. […] The IC50 determined using the EC80 of acetylcholine is the value reported. […]
(In general: Calcium flux is commonly read through the fluorescence of an indicator in the cells.)

In a further data set the test system is recognition memory. As to the kind of experiment: Novel object recognition (NOR) test. The format is in vivo, rat. Conditions: PO; for minimum effective dose (MED) in NOR: male Sprague-Dawley rats, 3 given 2 h, 5 given 1 h before exposure, memory assessed 24 h later; for effect on recognition memory in NOR: rats, 3 at 1, 3, 10 mg/kg, 5 at 0.3, 1, 3 mg/kg. As for the experimental part:
Figure 4 Novel object recognition (NOR) test in rats with M1 PAMs 3 and 5. […] Minimum effective dose (MED) is 10 mg/kg. […] Minimum effective dose (MED) is 1 mg/kg. N = 13–18/group of male Sprague-Dawley rats. Analysis of variance (ANOVA) *p < 0.05; **p < 0.01 Dunnett posthoc test.
Rats were habituated for 10 min for 2 consecutive days in an empty novel object recognition (NOR) arena consisting of dark-colored plexiglass box (40 × 64 × 33 cm3). On day 3 rats were administered vehicle, M1 PAM 3 (1-10 mg/kg, p.o.., 10 mL/kg, n = 13-18), or M 1 PAM 5 (0.3-3 mg/kg, p.o.., 10 mL/kg, n = 16-18) and returned to their home cage for 60 min (M 1 PAM 5) or 2 hr (M1 PAM 3. Rats were then placed in the NOR arena containing two identical objects for 10 min. Following the exposure period, rats were placed back into their home cages for 24 h. The rats were then returned to the arena in which one of the previously exposed (familiar) objects was replaced by a novel object and were video recorded for 5 min while they explored the two objects.
Time spent exploring each object was scored by an observer blinded to the experimental conditions and the recognition index was calculated as [(time spent exploring novel object) – (time spent exploring familiar object)]/total time exploring objects. […]
C18, 2.1 x 30 mm, 2.6 um. Gradient conditions: 7% to 95% CH3CN in H2O (0.1% TFA) over 1.6

In another data set the target is Muscarinic M3 (Homo sapiens, UniProt P20309). As to the kind of experiment: Eurofins radioligand binding.
The target in another data set is hERG potassium channel (Homo sapiens, UniProt Q12809). As to the kind of experiment: Eurofins radioligand binding.
The next data set has as its target Opiate μ (OP3, MOP) (Homo sapiens, UniProt P35372). Briefly: Eurofins radioligand binding.
The test system of a further data set is Thyroid Hormone. Briefly: Eurofins radioligand binding. Also on record: species or system Rat.
Another data set has as its target Adrenergic β2 (Homo sapiens, UniProt P07550). As to the kind of experiment: Eurofins radioligand binding.
In a further data set the test system is Rolipram. As to the kind of experiment: Eurofins radioligand binding. Also on record: species or system Rat.
The target of another data set is Sigma σ1 (Homo sapiens, UniProt Q99720). Briefly: Eurofins radioligand binding.
The subject of a further data set is Glutamate, NMDA, Agonism. Briefly: Eurofins radioligand binding. Also on record: species or system Rat.
A further data set deals with Cannabinoid CB1 (Homo sapiens, UniProt P21554). Briefly: Eurofins radioligand binding.
The next data set concerns the target Opiate δ1 (OP1, DOP) (Homo sapiens, UniProt P41143). As to the kind of experiment: Eurofins radioligand binding.
For another data set, the target named is Opiate κ (OP2, KOP) (Homo sapiens, UniProt P41145). As to the kind of experiment: Eurofins radioligand binding.
Chain of Opiate κ (OP2, KOP) (P41145 whole entry): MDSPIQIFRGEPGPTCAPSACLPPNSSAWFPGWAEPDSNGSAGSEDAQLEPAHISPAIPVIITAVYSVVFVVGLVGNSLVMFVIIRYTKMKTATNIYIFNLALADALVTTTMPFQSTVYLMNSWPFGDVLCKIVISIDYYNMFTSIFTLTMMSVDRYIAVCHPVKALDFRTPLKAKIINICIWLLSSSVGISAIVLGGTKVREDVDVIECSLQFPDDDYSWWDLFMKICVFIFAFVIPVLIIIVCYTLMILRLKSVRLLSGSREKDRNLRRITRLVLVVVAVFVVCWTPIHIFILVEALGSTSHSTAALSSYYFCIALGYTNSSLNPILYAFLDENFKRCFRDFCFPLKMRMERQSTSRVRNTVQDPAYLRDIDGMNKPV

Chain of Cannabinoid CB1 (P21554 whole entry): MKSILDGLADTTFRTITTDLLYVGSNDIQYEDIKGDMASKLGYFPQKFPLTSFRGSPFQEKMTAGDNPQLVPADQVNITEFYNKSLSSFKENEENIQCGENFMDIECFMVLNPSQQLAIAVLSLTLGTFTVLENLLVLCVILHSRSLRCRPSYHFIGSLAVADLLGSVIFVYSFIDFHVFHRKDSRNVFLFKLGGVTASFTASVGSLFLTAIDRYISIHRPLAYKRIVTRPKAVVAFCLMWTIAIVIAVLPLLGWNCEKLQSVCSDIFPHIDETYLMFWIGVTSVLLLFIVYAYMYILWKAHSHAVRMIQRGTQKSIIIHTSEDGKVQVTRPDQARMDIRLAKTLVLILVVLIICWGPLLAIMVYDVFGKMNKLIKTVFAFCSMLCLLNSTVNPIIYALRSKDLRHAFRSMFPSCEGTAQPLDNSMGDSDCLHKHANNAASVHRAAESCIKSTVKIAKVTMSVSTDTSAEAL
Chain of Opiate δ1 (OP1, DOP) (P41143 whole entry): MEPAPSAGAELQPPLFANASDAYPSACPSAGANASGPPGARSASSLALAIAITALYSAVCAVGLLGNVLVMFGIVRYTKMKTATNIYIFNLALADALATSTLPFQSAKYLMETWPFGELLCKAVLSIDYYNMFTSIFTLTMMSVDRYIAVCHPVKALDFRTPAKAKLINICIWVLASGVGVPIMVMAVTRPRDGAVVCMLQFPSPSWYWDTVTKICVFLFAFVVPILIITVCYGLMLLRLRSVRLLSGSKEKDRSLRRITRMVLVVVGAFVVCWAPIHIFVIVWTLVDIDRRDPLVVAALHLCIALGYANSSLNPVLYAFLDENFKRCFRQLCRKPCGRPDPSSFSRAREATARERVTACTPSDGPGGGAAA
Chain of Sigma σ1 (Q99720 whole entry): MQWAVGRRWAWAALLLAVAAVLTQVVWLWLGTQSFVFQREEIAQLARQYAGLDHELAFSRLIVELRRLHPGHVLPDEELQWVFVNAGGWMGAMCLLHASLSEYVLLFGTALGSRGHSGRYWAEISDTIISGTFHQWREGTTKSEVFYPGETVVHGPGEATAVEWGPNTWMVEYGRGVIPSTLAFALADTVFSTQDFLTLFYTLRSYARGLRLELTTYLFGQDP
Chain of hERG (Q12809 whole entry): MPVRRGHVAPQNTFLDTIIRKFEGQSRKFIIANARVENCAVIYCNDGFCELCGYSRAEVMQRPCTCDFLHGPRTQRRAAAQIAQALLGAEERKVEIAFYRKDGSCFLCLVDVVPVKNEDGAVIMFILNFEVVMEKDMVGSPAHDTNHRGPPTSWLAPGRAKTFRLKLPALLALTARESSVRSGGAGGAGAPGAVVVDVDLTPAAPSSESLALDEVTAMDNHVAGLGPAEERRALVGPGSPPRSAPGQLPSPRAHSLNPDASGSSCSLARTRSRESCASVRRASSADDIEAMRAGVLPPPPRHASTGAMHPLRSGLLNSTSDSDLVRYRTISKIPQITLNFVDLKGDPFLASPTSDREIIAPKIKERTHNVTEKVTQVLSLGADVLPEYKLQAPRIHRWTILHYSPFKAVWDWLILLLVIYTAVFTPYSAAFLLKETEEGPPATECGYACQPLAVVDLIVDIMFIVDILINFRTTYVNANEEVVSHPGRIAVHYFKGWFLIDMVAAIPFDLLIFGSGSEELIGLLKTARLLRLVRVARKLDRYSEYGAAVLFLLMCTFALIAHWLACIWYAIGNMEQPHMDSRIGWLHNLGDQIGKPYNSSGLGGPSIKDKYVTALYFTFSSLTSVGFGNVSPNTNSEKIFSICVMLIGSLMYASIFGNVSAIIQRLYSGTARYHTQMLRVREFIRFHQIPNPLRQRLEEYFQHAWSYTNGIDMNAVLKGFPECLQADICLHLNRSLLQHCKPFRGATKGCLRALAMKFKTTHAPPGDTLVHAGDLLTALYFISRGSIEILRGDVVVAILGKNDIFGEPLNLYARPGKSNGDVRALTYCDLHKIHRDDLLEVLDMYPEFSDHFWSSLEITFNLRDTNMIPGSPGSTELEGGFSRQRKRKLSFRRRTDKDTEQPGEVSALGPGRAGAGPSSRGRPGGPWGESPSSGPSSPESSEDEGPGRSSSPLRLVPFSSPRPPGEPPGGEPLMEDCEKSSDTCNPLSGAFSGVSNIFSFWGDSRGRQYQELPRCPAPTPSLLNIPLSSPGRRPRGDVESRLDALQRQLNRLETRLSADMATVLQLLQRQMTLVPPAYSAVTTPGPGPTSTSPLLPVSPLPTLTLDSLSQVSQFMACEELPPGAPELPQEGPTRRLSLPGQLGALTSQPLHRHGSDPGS
Chain of hERG potassium channel (Q12809 whole entry): as above
Chain of Opiate μ (OP3, MOP) (P35372 whole entry): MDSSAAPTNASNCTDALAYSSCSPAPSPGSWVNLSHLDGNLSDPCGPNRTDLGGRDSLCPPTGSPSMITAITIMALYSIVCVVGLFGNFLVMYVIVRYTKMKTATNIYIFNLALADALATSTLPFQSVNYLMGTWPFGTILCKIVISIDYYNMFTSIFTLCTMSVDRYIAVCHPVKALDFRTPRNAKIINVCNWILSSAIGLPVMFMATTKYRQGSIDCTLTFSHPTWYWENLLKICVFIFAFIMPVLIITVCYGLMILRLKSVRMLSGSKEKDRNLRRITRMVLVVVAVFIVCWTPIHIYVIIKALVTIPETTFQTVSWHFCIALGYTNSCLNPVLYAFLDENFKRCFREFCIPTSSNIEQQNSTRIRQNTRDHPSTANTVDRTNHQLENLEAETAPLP
Chain of Muscarinic M3 (P20309 whole entry): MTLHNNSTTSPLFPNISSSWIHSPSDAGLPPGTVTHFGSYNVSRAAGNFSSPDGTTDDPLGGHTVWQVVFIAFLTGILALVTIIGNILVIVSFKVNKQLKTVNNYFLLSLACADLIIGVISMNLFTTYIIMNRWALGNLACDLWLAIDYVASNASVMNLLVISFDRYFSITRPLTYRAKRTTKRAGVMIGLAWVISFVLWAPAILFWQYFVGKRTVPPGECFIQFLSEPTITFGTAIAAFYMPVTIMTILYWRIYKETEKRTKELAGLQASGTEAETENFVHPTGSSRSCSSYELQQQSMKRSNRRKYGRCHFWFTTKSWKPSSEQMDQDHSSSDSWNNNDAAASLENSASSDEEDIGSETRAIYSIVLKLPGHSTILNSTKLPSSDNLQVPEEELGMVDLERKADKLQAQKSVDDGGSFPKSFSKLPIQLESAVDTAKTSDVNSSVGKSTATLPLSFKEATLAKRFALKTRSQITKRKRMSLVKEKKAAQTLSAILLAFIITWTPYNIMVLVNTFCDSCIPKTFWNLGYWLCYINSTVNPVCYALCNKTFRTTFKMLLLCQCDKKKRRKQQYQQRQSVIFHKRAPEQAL

As to `Cn1cc2c(-c3cc(F)c(CN4Cc5ncccc5C4=O)c(F)c3)cccc2n1` [compound 1], in data set [1], the “F (%) po” value worked out at 59%, the clearance came to 3.3 mL/min/kg, the Vd came to 0.9 L/kg and the half-life was 4.3 h. Also, in data set [2], the “rat CLhep” value is reported as 5.7 mL/min/kg. For the same molecule, the IC50 on hERG was 12 µM. Further, in data set [3], the clearance was 4 mL/min/kg, the Vd was determined as 2.1 L/kg, the half-life was 7.5 h and the “F (%) po” value was found to be 100%.

Consider `[2H]C1([2H])c2ncccc2C(=O)N1Cc1c(F)cc(-c2cccc3nn(C)cc23)cc1F` [compound 3], for which the EC50 in the data set on rM2-5 and with hM2-5 was greater than 30 µM throughout. Besides, in the data set with recognition memory, the “minimum effective dose (MED) in NOR” value was determined as 10 mg/kg. Moreover, the “effect on recognition memory in NOR” value in the data set with recognition memory is listed as “dose-dependently enhanced the recognition memory”.

Turning to `[2H]C1([2H])c2ncccc2C(=O)N1Cc1c(F)cc(-c2cccc3nn(C([2H])([2H])[2H])cc23)cc1F` [compound 5], the inhibition at 10 µM on Muscarinic M3 was -10%; on hERG potassium channel, 9%; at Opiate μ (OP3, MOP), 5%; at Adrenergic β2, -1%; on Sigma σ1 it was 11%; at Cannabinoid CB1, -3%. In addition, the inhibition at 10 µM on Opiate δ1 (OP1, DOP) is 1%; at Opiate κ (OP2, KOP), 9%. Moreover, the “F (%) po” value in data set [1] is 64%; in [3], 85%. Also, the clearance turned out to be 4 mL/min/kg in [1] and 2.6 mL/min/kg in data set [3]. The Vd turned out to be 1.1 L/kg in [1] and 2 L/kg in data set [3]. The half-life in data set [1] was 4.6 h; in data set [3], 10 h. Further, the “% Inhibition at 10 µM” value with Thyroid Hormone was 0%; with Rolipram, 10%; with Glutamate, NMDA, Agonism it was 3%. Besides, the concentration for a half-maximal effect (EC50) with rM2-5 and in the data set on hM2-5 was greater than 30 µM in each case. Besides, the “minimum effective dose (MED) in NOR” value in the data set on recognition memory is on record as 1 mg/kg. For the same molecule, the “effect on recognition memory in NOR” value in the data set with recognition memory is listed as “dose-dependently enhanced recognition memory”.

As a reminder, the IC50 is the concentration that gives 50% inhibition. One may read the EC50 as the concentration that produces a half-maximal response. Usually inhibition stands for the drop in the measured response relative to a control, in per cent. For orientation: % Inhibition means the relative decrease from the control value, in per cent.
